Measured values reported in BindingDB's records for doi:10.7270/Q2736PBV (Broad Institute, 2009).

Molecular target: T1, Streptokinase A (Streptococcus pyogenes serotype M1, UniProt P10520)
T1 sequence (P10520 whole entry): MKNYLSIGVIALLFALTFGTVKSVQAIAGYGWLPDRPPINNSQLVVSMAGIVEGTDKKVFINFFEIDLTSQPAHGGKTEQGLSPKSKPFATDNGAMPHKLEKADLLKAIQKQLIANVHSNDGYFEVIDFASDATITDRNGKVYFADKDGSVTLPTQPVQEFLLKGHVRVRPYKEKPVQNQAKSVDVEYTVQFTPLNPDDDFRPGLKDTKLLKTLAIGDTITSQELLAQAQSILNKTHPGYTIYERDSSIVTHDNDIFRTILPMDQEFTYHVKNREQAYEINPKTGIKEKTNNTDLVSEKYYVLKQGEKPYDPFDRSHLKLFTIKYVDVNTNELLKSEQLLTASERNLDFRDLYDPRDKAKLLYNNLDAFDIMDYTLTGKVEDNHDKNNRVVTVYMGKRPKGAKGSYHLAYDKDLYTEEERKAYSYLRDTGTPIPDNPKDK
Experiment: viability-normalized secreted streptokinase activity reduction – plasminogen activation absorbance, OD405, dose response (AID 1914)

## CN(C)c1ccc(C2CC(c3ccc(Cl)cc3OC(F)F)=Nc3ncnn32)cc1 (stereo not given)
  EC50: > 150 µM

## CCc1ccc2[nH]c(=O)c(C3c4ccc5cccnc5c4OC(=N)C3C#N)cc2c1 (stereo not given)
  EC50: > 150 µM

## COc1ccc(OC)c(NC=C2C(=O)NC(=S)N(Cc3ccccc3)C2=O)c1
  EC50: > 150 µM

## O=C1C=CC([N+](=O)[O-])=CC1/C=N/NC(=O)C(O)(c1ccccc1)c1ccccc1 (stereo not given)
  EC50: > 150 µM

## CCCCCCC(N=O)c1ccccn1 (stereo not given)
  EC50: > 150 µM

## C=CCn1c(-n2c(O)cc(Cc3ccccc3)c2O)nc2ccccc21
  EC50: > 150 µM

## Cc1cc(C)c(N=Nc2c(C)[nH]n(C(N)=S)c2=O)c(C)c1
  EC50: > 150 µM

## C=c1c(C#N)c(N)[nH]c2c(C#N)c(C)c(=Cc3ccc(C)cc3)c1=2
  EC50: 12.3 µM

## C=CCn1c(SCC(=O)C(C#N)C(C)=N)nc2sc(C)c(C)c2c1=O (stereo not given)
  EC50: > 150 µM

## COc1cc(CN=Nc2nc(Nc3ccc(C)cc3)nc(-n3nc(C)cc3C)n2)cc(OC)c1OC
  EC50: > 150 µM

## O=C1Nc2ccccc2SC1C=Nc1cccc(Cl)c1 (stereo not given)
  EC50: > 150 µM

## Cc1nn(-c2ccccc2)c(C)c1CN=Nc1nc2ccccc2[nH]1
  EC50: > 150 µM

## CCC(C)N1C(=O)C(=CNNc2ccccc2)C(=O)NC1=S (stereo not given)
  EC50: > 150 µM

## O=C(Oc1cccc(CN=Nc2nc(Nc3ccccc3)nc(N3CCOCC3)n2)c1)c1ccco1
  EC50: > 150 µM

## Cc1sc2ncnc(N=NCc3ccccc3O)c2c1C
  EC50: 8.21 µM

## CC(N=Nc1ccc(Cl)c(Cl)c1)c1ccc(-n2ccnc2)cc1 (stereo not given)
  EC50: 17.2 µM

## CC(N=Nc1nc2ccccc2s1)c1ccc2c(c1)OCO2 (stereo not given)
  EC50: > 150 µM

## N#CC(C(=O)c1ccc([N+](=O)[O-])o1)c1nc2ccccc2[nH]1 (stereo not given)
  EC50: 27.6 µM

## O=C1C([N+](=O)[O-])=CC(Cl)=CC1CN=Nc1nc2ccccc2s1 (stereo not given)
  EC50: > 150 µM

## S=C1N=C(C23CC4CC(CC(C4)C2)C3)CC(c2ccc3c(c2)OCO3)N1 (stereo not given)
  EC50: 22.5 µM

## O=C1C(=NNC(=S)Nc2ccccc2F)c2ccccc2N1Cc1ccc(F)cc1
  EC50: 0.607 µM

## CCOc1ccc(NC(=S)NNC2=c3ccccc3=NC2=O)cc1
  EC50: > 150 µM

## Cc1cc(C)nc(N=NCc2cc(Br)ccc2O)n1
  EC50: > 150 µM

## COC1=CC([N+](=O)[O-])=CC(/C=N/NC(=O)c2cc(-c3ccccc3)nc3ccccc23)C1=O (stereo not given)
  EC50: > 150 µM

## Cc1cc(N=NC(C)c2ccccc2O)nc(-c2ccccc2O)n1 (stereo not given)
  EC50: 14 µM

## COc1cccc(-n2c(O)c3[nH][nH]c(C(=O)CN4C(=O)c5ccccc5C4=O)c-3c2=O)c1
  EC50: > 150 µM

## Cc1ccc2nc(-n3c(O)c[nH]c3=S)sc2c1
  EC50: > 150 µM

## COc1ccc(CC(=O)N/N=C/C2C=C([N+](=O)[O-])C=C(Br)C2=O)cc1 (stereo not given)
  EC50: > 150 µM

## CN(C)c1ccc(CN=Nc2nc3ccccc3o2)cc1
  EC50: > 150 µM

## O=C(N/N=C/C1C=C([N+](=O)[O-])C=CC1=O)c1cccc(NC(=O)c2cccc(Cl)c2)c1 (stereo not given)
  EC50: > 150 µM

## CCOC(=O)c1sc(N2C(=O)C(=O)C(C(=O)c3ccco3)C2c2cccc(Cl)c2)nc1C (stereo not given)
  EC50: > 150 µM

## CC(=NNC(=N)Sc1cc(O)n(-c2ccc(Cl)c(Cl)c2)c1O)c1cccs1 [1-(3,4-dichlorophenyl)-2,5-dioxo-3-pyrrolidinyl 2-[1-(2-thienyl)ethylidene]hydrazinecarbimidothioate]
  EC50: 7.44 µM

## CCc1ccc2nc(N3C(=O)C(=O)C(C(=O)c4ccco4)C3c3cccs3)sc2c1 (stereo not given) [1-(6-ethyl-1,3-benzothiazol-2-yl)-3-(furan-2-ylcarbonyl)-4-oxidanyl-2-thiophen-2-yl-2H-pyrrol-5-one]
  EC50: > 150 µM

## Oc1cc(N(CCc2ccccc2)C(=S)Nc2ccccc2)c(O)n1-c1ccc(Br)cc1 [1-[1-(4-bromophenyl)-2,5-bis(oxidanylidene)pyrrolidin-3-yl]-3-phenyl-1-(2-phenylethyl)thiourea]
  EC50: 2.67 µM

## O=C1N=c2ccccc2=C1NNC(=S)NCCc1ccccc1 [1-[(2-oxo-3-indolyl)amino]-3-(2-phenylethyl)thiourea]
  EC50: > 150 µM

## O=C1C(=NNC(=S)Nc2ccccc2F)c2ccccc2N1Cc1cccc(Cl)c1 [1-[(Z)-[1-[(3-chlorophenyl)methyl]-2-oxoindol-3-ylidene]amino]-3-(2-fluorophenyl)thiourea]
  EC50: > 150 µM

## C[n+]1ccc(CN=Nc2nc(Cl)c(C#N)c(Cl)c2Cl)cc1 [2,4,5-trichloro-6-[2-[(1-methylpyridin-1-ium-4-yl)methylidene]hydrazinyl]pyridine-3-carbonitrile;chloride]
  EC50: > 150 µM

## CC(N=Nc1nc(-c2ccccc2F)nc2ccccc12)c1ccccc1O (stereo not given) [2-(1-{[2-(2-Fluoro-phenyl)-quinazolin-4-yl]-hydrazono}-ethyl)-phenol]
  EC50: > 150 µM

## COc1ccccc1Nc1oc2cc(=O)ccc-2cc1C(N)=O [2-(2-methoxyanilino)-7-oxo-1-benzopyran-3-carboxamide]
  EC50: > 150 µM

## Cc1ccc(C(=O)C2C(=O)C(=O)N(Cc3ccco3)C2c2cccc(Br)c2)o1 (stereo not given) [2-(3-bromophenyl)-1-(2-furanylmethyl)-4-hydroxy-3-[(5-methyl-2-furanyl)-oxomethyl]-2H-pyrrol-5-one]
  EC50: > 150 µM

## Oc1nc(Nc2ccc(Cl)cc2)sc1Cc1cccc(Cl)c1Cl [2-(4-chloroanilino)-5-(2,3-dichlorobenzyl)-2-thiazolin-4-one]
  EC50: 131 µM

## Oc1nc(Nc2ccc(Cl)cc2)sc1Cc1cc(Cl)ccc1Cl [2-(4-chloroanilino)-5-(2,5-dichlorobenzyl)-2-thiazolin-4-one]
  EC50: > 150 µM

## Cc1[nH]c2ccccc2c1/C=C1\N=C(c2ccc(F)cc2)OC1=O [2-(4-fluorophenyl)-4-[(2-methyl-1H-indol-3-yl)methylene]-1,3-oxazol-5(4H)-one]
  EC50: 16.6 µM

## Cc1ccc(Nc2nc(N=NCc3ccc4c(c3)OCO4)nc(N3CCOCC3)n2)cc1 [2-N-(1,3-benzodioxol-5-ylmethylideneamino)-4-N-(4-methylphenyl)-6-morpholin-4-yl-1,3,5-triazine-2,4-diamine]
  EC50: 111 µM

## O=C(O)c1ccccc1N=NCc1cc(Br)cc(Br)c1O [2-[2-[(E)-(3,5-dibromo-6-oxocyclohexa-2,4-dien-1-ylidene)methyl]hydrazinyl]benzoic acid]
  EC50: 32.4 µM

## Cc1nn(-c2ccccc2)c(Cl)c1C1C2=C(CCCC2=O)OC(=N)C1C#N (stereo not given) [2-azanyl-4-(5-chloranyl-3-methyl-1-phenyl-pyrazol-4-yl)-5-oxidanylidene-4,6,7,8-tetrahydrochromene-3-carbonitrile]
  EC50: > 150 µM

## Cc1nn(-c2ccccc2)c(Cl)c1C1C2=C(CC(C)(C)CC2=O)OC(=N)C1C#N (stereo not given) [2-azanyl-4-(5-chloranyl-3-methyl-1-phenyl-pyrazol-4-yl)-7,7-dimethyl-5-oxidanylidene-6,8-dihydro-4H-chromene-3-carbonitrile]
  EC50: > 150 µM

## Cc1ccc(NN=C(C=O)C(=O)c2ccc(Cl)cc2)cc1 [3-(4-chlorophenyl)-2-[(4-methylphenyl)hydrazinylidene]-3-oxopropanal]
  EC50: 50 µM

## COc1ccc2nc(-n3c(O)c[nH]c3=S)sc2c1 [3-(6-methoxy-1,3-benzothiazol-2-yl)-2-sulfanylidene-imidazolidin-4-one]
  EC50: > 150 µM

## CCOc1cc(CN=Nc2cccc(C(=O)O)c2)ccc1OC(=O)c1ccccc1 [3-[(N''E)-N''-(4-benzoyloxy-3-ethoxy-benzylidene)hydrazino]benzoic acid]
  EC50: > 150 µM

## CCOC(=O)C1C(=N)Oc2ccc3ccccc3c2C1c1ccc(O)cc1 (stereo not given) [3-amino-1-(4-hydroxyphenyl)-1H-benzo[f][1]benzopyran-2-carboxylic acid ethyl ester]
  EC50: 11.5 µM

## Cc1cccc(NC(=O)C2=C(N)C(C(=O)N3CCOCC3)/C(=N/c3c(C)cccc3C)S2)c1 (stereo not given) [3-amino-5-(2,6-dimethylphenyl)imino-N-(3-methylphenyl)-4-(morpholine-4-carbonyl)-2H-thiophene-2-carboxamide]
  EC50: 3.32 µM

## CCCCCCn1[nH]c(C)c(C(=O)c2ccc(Cl)cc2)c1=O [4-(4-Chloro-benzoyl)-2-hexyl-5-methyl-2,4-dihydro-pyrazol-3-one]
  EC50: > 150 µM

## C=CCOC(=O)C1=C(C)N=C(SCC)C(C#N)C1c1ccc(Cl)cc1 (stereo not given) [4-(4-Chloro-phenyl)-5-cyano-6-ethylsulfanyl-2-methyl-1,4-dihydro-pyridine-3-carboxylic acid allyl ester]
  EC50: 8.34 µM

## C=c1[nH]n(-c2ccccc2)c(=O)c1=C(C=Cc1cccc(OC)c1OC)c1ccc(Br)cc1 [4-[1-(4-Bromo-phenyl)-3-(2,3-dimethoxy-phenyl)-allylidene]-5-methyl-2-phenyl-2,4-dihydro-pyrazol-3-one]
  EC50: > 150 µM

## O=C(O)c1ccc(N=NCc2ccc(OC(=O)c3cccc(Cl)c3)cc2)cc1 [4-[2-[[4-[(3-chlorophenyl)-oxomethoxy]phenyl]methylidene]hydrazinyl]benzoic acid]
  EC50: > 150 µM

## CNC(=Nc1cc(Cl)ccc1Cl)Sc1cc(O)n(-c2ccc(C(=O)OC)cc2)c1O [4-[3-[[(2,5-dichloroanilino)-methyliminomethyl]thio]-2,5-dioxo-1-pyrrolidinyl]benzoic acid methyl ester]
  EC50: 50 µM

## CC(C)(C)c1cc(-c2cs/c(=N\c3ccccc3)n2Cc2ccc(C(=O)O)cc2)cc(C(C)(C)C)c1O [4-[[4-(3,5-ditert-butyl-4-oxidanyl-phenyl)-2-phenylazanyl-1,3-thiazol-3-ium-3-yl]methyl]benzoic acid;bromide]
  EC50: > 150 µM

## CCCCCCCn1[nH]c(C)c(C(=O)c2ccccc2)c1=O [4-benzoyl-2-heptyl-5-methyl-2,4-dihydro-3H-pyrazol-3-one]
  EC50: > 150 µM

## Cc1ccc(NNC2=CS(=O)(=O)N(C)c3ccsc32)cc1 [4-methyl-N-[(1-methyl-2,2-dioxo-4-thieno[3,2-c]thiazinylidene)amino]aniline]
  EC50: 4.04 µM
